Test system: M2 macrophages
Type: cell-based, human
Settings: inhibitor 30 min, TB511 1 µM 1 h, 24 h fresh medium, n=3

Row | Structure (SMILES) | Effect of inhibitor on TB511-induced apoptosis (CCK8)
1 | CN(C)CCCN1c2ccccc2Sc2ccc(Cl)cc21 [CPZ, chlorpromazine] | decreasing TB511-induced apoptosis
2 | C=C1[C@@H](C)[C@H]2[C@H](Cc3ccccc3)NC(=O)[C@]23[C@H](OC(C)=O)/C=C/[C@@](C)(O)C(=O)[C@@H](C)C/C=C/[C@H]3[C@@H]1O [CyD, cytochalasin D] | decreasing TB511-induced apoptosis

Source: PMC11973759 (Journal for Immunotherapy of Cancer, 2025)
